According to patent publication US20030022241A1, “Methods” (priority 2001, published 2003):

Molecular target: native MNK-2B (Homo sapiens, UniProt Q9HBH9)
Experiment: NMR screening (Saturation Transfer Difference) for compounds binding Mnk2b
Details: screen: 1 μM native MNK-2B, 200 μM compound mixture; confirmation: 2 μM native Mnk2B, 250 μM individual compound; pH 7.5, 20° C.
From the text: A diversity library consisting of relatively small and highly water-soluble compounds was used to screen native MNK-2B for binders by NMR (Nuclear Magnetic Resonance). The NMR tecinique used to identify binders was Saturation Transfer Difference (STD): the protein ^1H resonances are saturated by means of a weak radio-frequency field applied to a narrow spectral region. The saturation is transferred by spin diffusion to the rest of the protein and subsequently further to compounds that bind to the protein attenuating their signals in the NMR spectrum. The spectrum is then subtracted from a spectrum obtained at non-saturating conditions to obtain an STD spectrum showing only the signals from compounds interacting with the protein. In practice the pulse sequence is written in such a way that the subtraction is done automatically in every other scan, i.e. the individual spectra are never observed (Mayer & Meyer, Angew. Chem. Int. Ed., 38, 1784-1788, 1999).
The compounds in the library are divided into mixtures consisting of 4-8 compounds each. Each sample contained 1 μM native MNK-2B, 200 μM compound mixture, 50 mM sodium phosphate buffer, 1 mM DTT, pH 7.5 in ca 98% D2O/2% H2O. […] The volume was 600 μl and standard NMR tubes were used. […] A reference ^1H 1D experiment and an STD experiment were recorded on each sample. […]

Sequence of native MNK-2B (Q9HBH9 1-414 isoform Q9HBH9-2): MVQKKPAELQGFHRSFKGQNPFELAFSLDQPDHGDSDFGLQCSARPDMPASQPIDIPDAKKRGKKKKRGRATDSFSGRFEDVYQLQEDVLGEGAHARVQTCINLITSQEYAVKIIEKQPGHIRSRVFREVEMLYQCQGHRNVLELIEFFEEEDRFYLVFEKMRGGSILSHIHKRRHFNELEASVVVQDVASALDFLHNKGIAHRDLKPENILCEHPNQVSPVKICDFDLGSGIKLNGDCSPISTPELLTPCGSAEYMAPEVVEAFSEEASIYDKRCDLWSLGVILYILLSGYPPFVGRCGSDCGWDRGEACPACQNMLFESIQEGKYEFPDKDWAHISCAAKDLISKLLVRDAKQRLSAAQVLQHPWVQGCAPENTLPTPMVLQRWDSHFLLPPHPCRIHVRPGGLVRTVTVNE

binding to Mnk2b by STD NMR (identified as ligand): identified as Mnk2b ligands
Structure (SMILES): COC(=O)c1ccc(O)cc1 [4-hydroxy-benzoic acid methyl ester]
